Reference: patent US10183944B2 (Asana Biosciences, LLC, priority 2011, dated 2019)
Where a name gives a salt, the structure may show the parent alone.

Legend:
[1] = molecular target: Syk (356-635 amino acids) catalytic domain (Homo sapiens (Human), UniProt P43405); assay: Inhibition of enzymatic Syk kinase activity (radiometric); assay type: biochemical; details: read-out: IC50 Syk
In short: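 Human Syk (356-635) kinase domain (0.035–7.5 ng/reaction) preincubated with compound 30 minutes at room temperature, then reacted with pG4T substrate, 100 μM ATP (stock) and γ-32P-ATP for 10 minutes at 30° C. Reaction stopped with HCl/ATP, spotted on P81 paper, washed and counted by scintillation. Percent inhibition versus no-compound counts.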

[2] = molecular target: JAK2 (Homo sapiens (Human), UniProt O60674); assay: Inhibition of enzymatic JAK2 kinase activity (TR-FRET); assay type: biochemical; details: read-out: IC50 JAK
JAK2, sequence (O60674 808-1132): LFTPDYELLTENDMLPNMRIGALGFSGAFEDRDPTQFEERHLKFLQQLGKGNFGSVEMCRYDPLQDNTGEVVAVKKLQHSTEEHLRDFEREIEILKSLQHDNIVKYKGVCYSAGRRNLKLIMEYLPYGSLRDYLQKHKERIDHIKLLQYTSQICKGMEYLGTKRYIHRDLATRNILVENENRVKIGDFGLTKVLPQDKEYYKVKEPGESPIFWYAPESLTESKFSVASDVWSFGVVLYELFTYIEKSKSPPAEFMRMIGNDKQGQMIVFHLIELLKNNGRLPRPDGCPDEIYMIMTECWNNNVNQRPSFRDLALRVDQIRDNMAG
Excerpt: The objective of this assay was to screen compounds in a Time-resolved fluorescence resonance energy transfer (TR-FRET) Enzymatic assay method for their potential to inhibit JAK2 (Janus kinase) activity.
TR-FRET assays are homogeneous proximity assays where Eu-labeled antiphosphotyrosine antibody binds to the phosphorylated substrates labeled with Ulight fluorescence acceptor. Eu can transfer energy to Ulight accepter in the complex and the interaction of two dye-labeled binding partners is detected by the energy transfer between a donor and an acceptor dye, and the subsequent light emission by the acceptor dye. The intensity of the light emission is proportional to the level of Ulight peptide phosphorylation.
Two μL of 10% DMSO in blank, substrate control and positive control wells and 2 μL of test compound in test wells was added. Thirteen μL of assay buffer in blank and substrate control wells and 13 μL of Enzyme buffer mix in positive and test wells was added. The reaction mixture was incubated for 30 minutes at RT on a plate shaker. Ultra Light-pGT substrate (5 μL) [poly Glu-Tyr (4:1) labeled with U Light TM dye, a tyrosine kinase substrate] and ATP mix was added to all wells. The reaction plate was incubated for 60 minutes at RT on a plate shaker. The reaction was stopped by adding 40 mM EDTA (10 μL) in buffer. Ten μL of antibody was added to all the wells. The plate was read in a Wallac® 1420 Multilabel Counter Victor 3 instrument (Ex: 340 nm Em: 615 & 665 nm) The following calculations were made:
F@ 665 Value-Buffer blank
F@ 615 Value-Buffer blank
Ratio of F@665/F@615-Substrate Blank
% Activity=(Test Sample/Positive control)*100%
Inhibition=(100−% Activity)

SMILES | IC50 [1] [nM] | IC50 [2] [nM]
COc1ccccc1-c1nc(Nc2ccc(N3CCC4(CC3)CC4C(=O)O)cc2)c2c(=O)[nH]ncc2n1 (centres unmarked) [Example 53, 6-(4-((2-(2-methoxylphenyl)-5-oxo-5,6-dihydropyrimido[4,5-d]pyridazin-4-yl)amino)phenyl)-6-azaspiro[2.5]octane-1-carboxylic acid] | > 100 | < 100
O=c1[nH]ncc2nc(-c3ccc(CN4CCOCC4)cc3)nc(Nc3ccc(CN4CCNCC4)cc3)c12 [Example 55, 2-(4-(morpholinomethyl)phenyl)-4-((4-(piperazin-1-ylmethyl)phenyl)amino) pyrimido[4,5-d]pyridazin-5(6H)-one hydrochloride] | > 100 | > 100
N#CCN1CCN(c2nc(Nc3ccc(N4CCC(CC(=O)O)CC4)cc3)c3c(=O)[nH]ncc3n2)CC1 [Example 70, 2-(1-(4-((2-(4-(cyanomethyl)piperazin-1-yl)-5-oxo-5,6-dihydropyrimido[4,5-d]pyridazin-4-yl)amino)phenyl)piperidin-4-yl)acetic acid] | < 100 | > 100
O=C(O)C1CC12CCN(c1ccc(Nc3nc(N4CCCNCC4)nc4cn[nH]c(=O)c34)cc1)CC2 (centres unmarked) [Example 72, 6-(4-((2-(1,4-diazepan-1-yl)-5-oxo-5,6-dihydropyrimido[4,5-d]pyridazin-4-yl)amino)phenyl)-6-azaspiro[2.5]octane-1-carboxylic acid hydrochloride] | < 50 | < 100
O=C(O)C1CC12CCN(c1ccc(Nc3nc(C4CCCCC4)nc4cn[nH]c(=O)c34)cc1)CC2 (centres unmarked) [Example 79, 6-(4-((2-cyclohexyl-5-oxo-5,6-dihydropyrimido[4,5-d]pyridazin-4-yl)amino)phenyl)-6-azaspiro[2.5]octane-1-carboxylic acid] | < 50 | < 10
O=C(O)C1CC12CCN(c1ccc(Nc3nc(C4CCCCCC4)nc4cn[nH]c(=O)c34)cc1)CC2 (centres unmarked) [Example 81, 6-(4-((2-cycloheptyl-5-oxo-5,6-dihydropyrimido[4,5-d]pyridazin-4-yl)amino)phenyl)-6-azaspiro[2.5]octane-1-carboxylic acid] | < 50 | < 10
CC(C)(O)C(=O)N1CCN(Cc2ccc(Nc3nc(-c4ccccc4)nc4cn[nH]c(=O)c34)cc2)CC1 [Example 83, 4-((4-((4-(2-hydroxy-2-methylpropanoyl)piperazin-1-yl)methyl)phenyl)amino)-2-phenylpyrimido[4,5-d]pyridazin-5(6H)-one] | < 50 | < 50
O=C(O)CN1CCC(c2ccc(Nc3nc(-c4ccccc4)nc4cn[nH]c(=O)c34)cc2)CC1 [Example 86, 2-(4-(4-((5-oxo-2-phenyl-5,6-dihydropyrimido[4,5-d]pyridazin-4-yl)amino)phenyl)piperidin-1-yl)acetic acid] | < 50 | < 50
O=C(O)CC1CCC(c2ccc(Nc3nc(-c4ccccc4)nc4cn[nH]c(=O)c34)cc2)CC1 (centres unmarked) [Example 87, 2-(4-(4-((5-oxo-2-phenyl-5,6-dihydropyrimido[4,5-d]pyridazin-4-yl)amino)phenyl)cyclohexyl)acetic acid] | < 50 | < 100
CC(C)(C#N)C1CCN(c2nc(Nc3ccc(N4CCC(CC(=O)O)CC4)cc3)c3c(=O)[nH]ncc3n2)CC1 [Example 100, 2-(1-(4-((2-(4-(2-cyanopropan-2-yl)piperidin-1-yl)-5-oxo-5,6-dihydropyrimido[4,5-d]pyridazin-4-yl)amino)phenyl)piperidin-4-yl)acetic acid] | < 50 | < 50
N#CCC1CCN(c2ccc(Nc3nc(-c4ccccc4)nc4cn[nH]c(=O)c34)cn2)CC1 [Example 101, 2-(1-(5-((5-oxo-2-phenyl-5,6-dihydropyrimido[4,5-d]pyridazin-4-yl)amino)pyridin-2-yl)piperidin-4-yl) acetonitrile] | > 100 | > 100
NC(=O)CC1CCN(c2ccc(Nc3nc(-c4ccccc4)nc4cn[nH]c(=O)c34)cn2)CC1 [Example 102, 2-(1-(5-((5-oxo-2-phenyl-5,6-dihydropyrimido[4,5-d]pyridazin-4-yl)amino)pyridin-2-yl)piperidin-4-yl) acetamide] | < 50 | > 100
O=C(CC1CCN(c2ccc(Nc3nc(N4CCCCCC4)nc4cn[nH]c(=O)c34)cc2)CC1)NCCO [Example 109, 2-(1-(4-((2-(azepan-1-yl)-5-oxo-5,6-dihydropyrimido[4,5-d]pyridazin-4-yl)amino)phenyl)piperidin-4-yl)-N-(2-hydroxyethyl)acetamide] | < 10 | < 10
O=c1[nH]ncc2nc(N3CCCCCC3)nc(Nc3ccc(OC[C@@H]4CO[C@@H](CO)CO4)cc3)c12 [Example 110, 2-(azepan-1-yl)-4-((4-(((2S,5S)-5-(hydroxymethyl)-1,4-dioxan-2-yl)methoxy)phenyl)amino)pyrimido[4,5-d]pyridazin-5(6H)-one] | < 10 | < 50
N#CCC1CCN(c2ccc(Nc3nc(N4CCC(CC#N)CC4)nc4cn[nH]c(=O)c34)cn2)CC1 [Example 114, 2-(1-(5-((2-(4-(cyanomethyl)piperidin-1-yl)-5-oxo-5,6-dihydropyrimido[4,5-d]pyridazin-4-yl)amino)pyridin-2-yl)piperidin-4-yl)acetonitrile] | < 10 | < 50

Next, values leading:

IC50 [1] [nM] | IC50 [2] [nM] | SMILES
> 100 | < 50 | N#CC1CCN(c2nc(Nc3ccc(CN4CCNCC4)cc3)c3c(=O)[nH]ncc3n2)CC1 [Example 56, 1-(5-oxo-4-((4-(piperazin-1-ylmethyl)phenyl)amino)-5,6-dihydropyrimido[4,5-d]pyridazin-2-yl)piperidine-4-carbonitrile hydrochloride]
< 50 | > 100 | O=c1[nH]ncc2nc(N3CCCNCC3)nc(Nc3ccc(CN4CCNCC4)cc3)c12 [Example 59, 2-(1,4-diazepan-1-yl)-4-((4-(piperazin-1-ylmethyl)phenyl)amino)pyrimido[4,5-d]pyridazin-5(6H)-one dihydrochloride]
< 50 | < 10 | O=C(O)CC1CCN(Cc2ccc(Nc3nc(N4CCCCCC4)nc4cn[nH]c(=O)c34)cc2)CC1 [Example 77, 2-(1-(4-((2-(azepan-1-yl)-5-oxo-5,6-dihydropyrimido[4,5-d]pyridazin-4-yl)amino)benzyl)piperidin-4-yl)acetic acid]
< 50 | < 10 | N#CCC1CCN(c2ccc(Nc3nc(N4CCCCCC4)nc4cn[nH]c(=O)c34)cc2)CC1 [Example 80, 2-(1-(4-((2-(azepan-1-yl)-5-oxo-5,6-dihydropyrimido[4,5-d]pyridazin-4-yl)amino)phenyl)piperidin-4-yl)acetonitrile]
< 50 | < 10 | CC(C)(O)C(=O)N1CCN(Cc2ccc(Nc3nc(N4CCCCCC4)nc4cn[nH]c(=O)c34)cc2)CC1 [Example 84, 2-(azepan-1-yl)-4-((4-((4-(2-hydroxy-2-methylpropanoyl)piperazin-1-yl)methyl)phenyl)amino)pyrimido[4,5-d]pyridazin-5(6H)-one]
< 50 | < 10 | CN1CCN(Cc2ccc(Nc3nc(N4CCCCCC4)nc4cn[nH]c(=O)c34)cc2)CC1 [Example 85, 2-(azepan-1-yl)-4-((4-((4-methylpiperazin-1-yl)methyl)phenyl)amino)pyrimido[4,5-d]pyridazin-5(6H)-one]
< 10 | < 10 | NC(=O)CC1CCN(c2ccc(Nc3nc(N4CCCCCC4)nc4cn[nH]c(=O)c34)cc2)CC1 [Example 105, 2-(1-(4-((2-(azepan-1-yl)-5-oxo-5,6-dihydropyrimido[4,5-d]pyridazin-4-yl)amino)phenyl)piperidin-4-yl)acetamide]
< 50 | < 50 | O=C(O)CN1CCN(CCOc2ccc(Nc3nc(N4CCCCCC4)nc4cn[nH]c(=O)c34)cc2)CC1 [Example 106, 2-(4-(2-(4-((2-(azepan-1-yl)-5-oxo-5,6-dihydropyrimido[4,5-d]pyridazin-4-yl)amino)phenoxy)ethyl)piperazin-1-yl) acetic acid]
> 100 | < 10 | N#CCC1CCN(c2ccc(Nc3nc(N4CCCCCC4)nc4cn[nH]c(=O)c34)cc2)CC1 [Example 113, 2-(1-(4-((2-(azepan-1-yl)-5-oxo-5,6-dihydropyrimido[4,5-d]pyridazin-4-yl)amino)phenyl)piperidin-4-yl)acetonitrile]
< 50 | < 50 | CC(C)(O)C(=O)N1CCN(CCOc2ccc(Nc3nc(N4CCCCCC4)nc4cn[nH]c(=O)c34)cc2)CC1 [Example 115, 2-(azepan-1-yl)-4-((4-(2-(4-(2-hydroxy-2-methylpropanoyl)piperazin-1-yl)ethoxy)phenyl)amino)pyrimido[4,5-d]pyridazin-5(6H)-one]
